This passage reports IC50 results from patent publication US8846704B2, “Thiopyrimidine-based compounds and uses thereof” (YM Biosciences Austraila Pty Ltd, priority 2007, dated 2014).

In one experiment the target is T1, human JAK2 (Homo sapiens, UniProt O60674).
T1 construct: The kinase domain of human JAK2 was amplified; GST (N); made in house; host or cells: Sf9 insect cells (baculovirus)
The experiment can be described thus: Alphascreen tyrosine kinase enzyme assay, JAK2 kinase domain. The experiment is classed as biochemical. The following applies: read-out: JAK2 IC50_nM. In short, it runs like this: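 JAK2 kinase domain expressed in baculovirus/Sf9 and glutathione-affinity purified. Compounds (final […]) pre-incubated 20 min with enzyme in 10 mM HEPES pH 7.5, MgCl2, NaCl, vanadate, 0.1% Tween 20.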

The next experiment concerns the target T2, human JAK3 (Homo sapiens, UniProt P52333).
T2 construct: The kinase domain of human JAK3 was amplified; GST (N); made in house; host or cells: Sf9 insect cells (baculovirus)
The experiment can be described thus: Alphascreen tyrosine kinase enzyme assay, JAK3 kinase domain. The experiment is classed as biochemical. The conditions noted are these: read-out: JAK3 IC50_nM. In short, it runs like this: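 GST-affinity-purified human JAK3 kinase domain (baculovirus/Sf9) was pre-incubated 20 min with compound ([…]) in HEPES pH 7.5 buffer with MgCl2, vanadate and Tween 20. Biotinylated peptide substrate ([…]) and ATP were then added; phosphotyrosine was detected by AlphaScreen PY100 acceptor and streptavidin donor beads after 2–3 h.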
(Bead proximity is the source of the signal in Alpha formats.)

In a further experiment the test system is BaF3 wild-type cells. The experiment can be described thus: Cellular screening, BaF3 wild-type cells, Alamar Blue. The following applies: Mus musculus, 40 hr, read-out: BAF3wt IC50_nM. The experiment is classed as cell-based. In outline:
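Compounds, screened from dilution plates at 20 μM, were added as 10× final stocks to cells grown in DMEM/10% FCS/10% WEHI 3B conditioned medium. Cells were seeded at 1.1× final (50,000–200,000 cells/mL) and incubated 40 hr at 37° C, 5% CO2. Viability was read at 544 nm after a further 4–6 hours with Alamar Blue.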

T1 sequence (O60674 849-1124 limits assumed): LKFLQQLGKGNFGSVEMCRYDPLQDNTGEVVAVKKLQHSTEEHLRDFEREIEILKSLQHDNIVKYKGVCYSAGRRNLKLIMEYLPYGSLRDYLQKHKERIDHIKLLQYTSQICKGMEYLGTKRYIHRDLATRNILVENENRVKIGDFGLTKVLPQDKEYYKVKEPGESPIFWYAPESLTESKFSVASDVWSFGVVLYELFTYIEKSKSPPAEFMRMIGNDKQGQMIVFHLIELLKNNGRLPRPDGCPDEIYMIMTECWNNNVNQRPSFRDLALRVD
T2 sequence (P52333 822-1111 limits assumed): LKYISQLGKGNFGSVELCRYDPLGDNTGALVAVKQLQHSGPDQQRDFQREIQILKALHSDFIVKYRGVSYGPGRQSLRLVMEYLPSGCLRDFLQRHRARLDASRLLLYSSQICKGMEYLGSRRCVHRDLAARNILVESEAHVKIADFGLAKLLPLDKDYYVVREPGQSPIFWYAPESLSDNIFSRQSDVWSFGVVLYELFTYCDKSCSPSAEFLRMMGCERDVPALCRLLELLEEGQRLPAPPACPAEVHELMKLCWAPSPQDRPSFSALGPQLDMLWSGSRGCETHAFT

On to `C=CC(=O)Nc1cccc(Nc2nccc(Sc3cccc(OC)c3)n2)c1` [Compound 31, N-(3-(4-(3-methoxyphenylthio)pyrimidin-2-ylao)phenyl)acrylamide], for which the results for the IC50 at human JAK2, on human JAK3 and in the experiment with BaF3 wild-type cells were more than 1000 nM, less than 100 nM and less than 20000 nM, respectively.
For `C=CC(=O)Nc1ccc(Sc2nc(Nc3ccc(OC)c(O)c3)ncc2C)cc1` [Compound 283, N-(4-(2-(3-hydroxy-4-methoxyphenylao)-5-methylpyrimidin-4-ylthio)phenyl)acrylamide], the figures for the IC50 at human JAK2, at human JAK3 and in the experiment with BaF3 wild-type cells were more than 1000 nM, less than 100 nM and less than 20000 nM, respectively.
For the compound `COc1ccc(Nc2nccc(Sc3ccc(NC(=O)CC#N)cc3)n2)cc1OC` [Compound 101, 2-cyano-N-(4-(2-(3,4-dimethoxyphenylao)pyrimidin-4-ylthio)phenyl)acetamide], the IC50 on human JAK2 is more than 1000 nM; on human JAK3, more than 1000 nM; in the experiment with BaF3 wild-type cells, less than 1000 nM.
On to `C=CC(=O)N(C)c1ccc(Sc2ccnc(Nc3ccc(N4CCOCC4)cc3)n2)cc1` [Compound 91, N-methyl-N-(4-(2-(4-morpholinophenylao)pyrimidin-4-ylthio)phenyl)acrylamide], for which the IC50 was more than 1000 nM on human JAK2, less than 100 nM on human JAK3 and more than 20000 nM in the experiment with BaF3 wild-type cells.
The matching figures for `Nc1ccc(Sc2nc(Nc3ccc(N4CCOCC4)cc3)ncc2I)cc1` [Compound 309, 4-(4-aophenylthio)-5-iodo-N-(4-morpholinophenyl)pyrimidin-2-ae]: more than 1000 nM, less than 500 nM and less than 5000 nM.
The matching figures for `C=CC(=O)Nc1ccc(Sc2ccnc(Nc3ccc(S(=O)(=O)N4CCN(C)CC4)cc3)n2)cc1` [Compound 370, N-(4-(2-(4-(4-methylpiperazin-1-ylsulfonyl)phenylao)pyrimidin-4-ylthio)phenyl)acrylamide]: more than 1000 nM, less than 100 nM and less than 20000 nM.
For `COc1cc(Sc2ccnc(Nc3ccc(N4CCOCC4)cc3)n2)ccc1N` [Compound 117, 4-(4-ao-3-methoxyphenylthio)-N-(4-morpholinophenyl)pyrimidin-2-ae] the same measures were more than 1000 nM, less than 500 nM and less than 5000 nM.
For `COc1cc(Nc2nccc(Sc3ccc(NCC#N)cc3)n2)cc(OC)c1OC` [Compound 52, 2-(4-(2-(3,4,5-trimethoxyphenylao)pyrimidin-4-ylthio)phenylao)acetonitrile], the IC50 on human JAK2 is more than 1000 nM.
Take `C=CC(=O)Nc1ccc(Sc2ccnc(Nc3ccc(S(=O)(=O)NCCC(C)C)cc3)n2)cc1` [Compound 371, N-(4-(2-(4-(N-isopentylsulfamoyl)phenylao)pyrimidin-4-ylthio)phenyl)acrylamide]: the IC50 at human JAK2 is more than 1000 nM; on human JAK3 it was less than 100 nM; with BaF3 wild-type cells, less than 20000 nM.
Regarding `C=CC(=O)Nc1ccc(Sc2ccnc(Nc3cccc(N4CCCC4)c3)n2)cc1` [Compound 355, N-(4-(2-(3-(pyrrolidin-1-yl)phenylao)pyrimidin-4-ylthio)phenyl)acrylamide], the IC50 on human JAK2 was more than 1000 nM; on human JAK3, less than 100 nM; in the experiment with BaF3 wild-type cells, less than 20000 nM.
The matching figures for `C=CC(=O)Nc1ccc(Sc2ccnc(Nc3cccc(S(=O)(=O)N4CCOCC4)c3)n2)cc1` [Compound 372, N-(4-(2-(3-(morpholinosulfonyl)phenylao)pyrimidin-4-ylthio)phenyl)acrylamide]: more than 1000 nM, less than 100 nM and less than 5000 nM.
In the case of `C=CC(=O)Nc1ccc(Sc2nc(Nc3ccc(N4CCOCC4)cc3)ncc2I)cc1` [Compound 313, N-(4-(5-iodo-2-(4-morpholinophenylao)pyrimidin-4-ylthio)phenyl)acrylamide], the IC50 is more than 1000 nM on human JAK2, less than 100 nM on human JAK3 and more than 20000 nM with BaF3 wild-type cells.
As for `COC(=O)COCC(=O)Nc1ccc(Sc2nc(Nc3ccc(N4CCOCC4)cc3)ncc2C)cc1` [Compound 189, methyl 2-(2-(4-(5-methyl-2-(4-morpholinophenylao)pyrimidin-4-ylthio)phenylao)-2-oxoethoxy)acetate], the results for the IC50 on human JAK2, at human JAK3 and in the experiment with BaF3 wild-type cells were more than 1000 nM, less than 500 nM and less than 20000 nM, respectively.
`Cc1cnc(Nc2ccc(N3CCOCC3)cc2)nc1Sc1ccc2c(c1)CCCN2` [Compound 166, 5-methyl-N-(4-morpholinophenyl)-4-(1,2,3,4-tetrahydroquinolin-6-ylthio)pyrimidin-2-ae]: the IC50 was more than 1000 nM at human JAK2, less than 500 nM at human JAK3 and less than 20000 nM with BaF3 wild-type cells.
As to `C=CC(=O)Nc1ccc(Sc2ccnc(Nc3cccc(S(=O)(=O)N4CCN(C)CC4)c3)n2)cc1` [Compound 365, N-(4-(2-(3-(4-methylpiperazin-1-ylsulfonyl)phenylao)pyrimidin-4-ylthio)phenyl)acrylamide], the IC50 on human JAK2 is more than 1000 nM; on human JAK3 it was less than 100 nM; in the experiment on BaF3 wild-type cells, less than 20000 nM.
With `C=CC(=O)Nc1ccc(Sc2ccnc(Nc3cccc(S(=O)(=O)NCc4ccccc4)c3)n2)cc1` [Compound 366, N-(4-(2-(3-(N-benzylsulfamoyl)phenylao)pyrimidin-4-ylthio)phenyl)acrylamide], the figures for the IC50 on human JAK2, on human JAK3 and in the experiment on BaF3 wild-type cells were more than 1000 nM, less than 100 nM and less than 20000 nM, respectively.
Turning to `C=CC(=O)Nc1ccc(Sc2nc(Nc3cccc(OC(F)(F)F)c3)ncc2C)cc1` [Compound 289, N-(4-(5-methyl-2-(3-(trifluoromethoxy)phenylao)pyrimidin-4-ylthio)phenyl)acrylamide], the results for the IC50 at human JAK2, on human JAK3 and with BaF3 wild-type cells were more than 1000 nM, less than 100 nM and more than 20000 nM, respectively.
For `N#Cc1nccc(Sc2ccc(Sc3ccnc(Nc4ccc(N5CCOCC5)cc4)n3)cc2)n1` [Compound 154, 4-(4-(2-(4-morpholinophenylao)pyrimidin-4-ylthio)phenylthio)pyrimidine-2-carbonitrile] the same measures were more than 1000 nM, less than 500 nM and less than 5000 nM.
For the compound `C=CC(=O)Nc1ccc(Sc2nc(Nc3cccc(O)c3)ncc2C)cc1` [Compound 281, N-(4-(2-(3-hydroxyphenylao)-5-methylpyrimidin-4-ylthio)phenyl)acrylamide], the figures for the IC50 on human JAK2, at human JAK3 and in the experiment with BaF3 wild-type cells were more than 1000 nM, less than 100 nM and less than 20000 nM, respectively.
As to `O=C(Nc1ccc(Sc2ccnc(Nc3ccc(N4CCOCC4)cc3)n2)cc1)C1CC1(F)Cl` (centres unmarked) [Compound 378, 2-chloro-2-fluoro-N-(4-(2-(4-morpholinophenylao)pyrimidin-4-ylthio)phenyl)cyclopropanecarboxamide], the IC50 is more than 1000 nM on human JAK2, less than 500 nM on human JAK3 and less than 1000 nM in the experiment on BaF3 wild-type cells.
On to `C=CC(=O)Nc1ccc(Sc2ccnc(Nc3cccc(Cl)c3)n2)cc1` [Compound 348, N-(4-(2-(3-chlorophenylao)pyrimidin-4-ylthio)phenyl)acrylamide], for which the IC50 at human JAK2 was more than 1000 nM; on human JAK3 it was less than 100 nM.
`C=CC(=O)Nc1ccc(Sc2ccnc(Nc3cccc([N+](=O)[O-])c3)n2)cc1` [Compound 361, N-(4-(2-(3-nitrophenylao)pyrimidin-4-ylthio)phenyl)acrylamide]: the IC50 at human JAK2 is more than 1000 nM; at human JAK3 it was less than 100 nM; in the experiment with BaF3 wild-type cells, more than 20000 nM.
The matching figures for `C=C(CN1CCOCC1)C(=O)Nc1cccc(Sc2ccnc(Nc3ccc(N4CCOCC4)cc3)n2)c1` [Compound 328, 2-(morpholinomethyl)-N-(3-(2-(4-morpholinophenylao)pyrimidin-4-ylthio)phenyl)acrylamide]: more than 1000 nM, less than 100 nM and less than 5000 nM.
The matching figures for `C=CC(=O)Nc1ccc(Sc2nc(Nc3ccc4c(c3)OCO4)ncc2C)cc1` [Compound 284, N-(4-(2-(benzo[d][1,3]dioxol-5-ylao)-5-methylpyrimidin-4-ylthio)phenyl)acrylamide]: more than 1000 nM, less than 100 nM and less than 20000 nM.
The matching figures for `Cc1cnc(Nc2ccc(N3CCOCC3)cc2)nc1Sc1ccc(NC(=O)COCC(=O)O)cc1` [Compound 188, 2-(2-(4-(5-methyl-2-(4-morpholinophenylao)pyrimidin-4-ylthio)phenylao)-2-oxoethoxy)acetic acid]: less than 500 nM, less than 100 nM and more than 20000 nM.
On to `O=C(/C=C/Cl)Nc1ccc(Sc2ccnc(Nc3ccc(N4CCOCC4)cc3)n2)cc1` [Compound 342, (E)-3-chloro-N-(4-(2-(4-morpholinophenylao)pyrimidin-4-ylthio)phenyl)acrylamide], for which the IC50 on human JAK2 was more than 1000 nM; on human JAK3, less than 100 nM; in the experiment with BaF3 wild-type cells it was more than 20000 nM.
Take `Cc1cnc(Nc2ccc(N3CCOCC3)cc2)nc1Sc1ccc(NC(=O)/C(Br)=C\C(=O)O)cc1` [Compound 381, (E)-3-bromo-4-(4-(5-methyl-2-(4-morpholinophenylao)pyrimidin-4-ylthio)phenylao)-4-oxobut-2-enoic acid]: the IC50 at human JAK2 was more than 1000 nM; at human JAK3 it was less than 500 nM; in the experiment with BaF3 wild-type cells, more than 20000 nM.
With `C=CC(=O)Nc1ccc(Sc2nc(Nc3ccccc3O)ncc2C)cc1` [Compound 287, N-(4-(2-(2-hydroxyphenylao)-5-methylpyrimidin-4-ylthio)phenyl)acrylamide], the IC50 was more than 1000 nM at human JAK2 and less than 100 nM at human JAK3.
